Source: ChEMBL document CHEMBL5380843 (J Med Chem, 2023)

How the values were obtained:
[1] = Selectivity index, ratio of CC50 for cytotoxicity against human MT4 cells to EC50 for antiviral activity against wild type HIV-1 IIIB infected in human MT4 cells; format: toxicity, cell-based; settings: read-out: Ratio CC50/EC50
[2] = Cytotoxicity against human MT4 cells assessed as reduction in cell viability incubated for 5 days by MTT assay; format: toxicity, cell-based; settings: time 5 day
[3] = test system: Human immunodeficiency virus 1; assay: Antiviral activity against wild type HIV-1 IIIB harboring reverse transcriptase […] mutant infected in human MT4 cells assessed as protection against virus-induced cytopathic effect incubated for 5 days by MTT assay; format: functional, organism-based; settings: Human immunodeficiency virus 1, IIIB, MT4, 120 h
[4] = test system: Human immunodeficiency virus 1; assay: Antiviral activity against wild type HIV-1 IIIB harboring reverse transcriptase K103N mutant infected in human MT4 cells assessed as protection against virus-induced cytopathic effect incubated for 5 days by MTT assay; format: functional, organism-based; settings: Human immunodeficiency virus 1, IIIB, MT4, 120 h
[5] = Resistant factor, ratio of EC50 for antiviral activity against HIV-1 IIIB harboring reverse transcriptase K103N mutant to EC50 for antiviral activity against wild type HIV-1 IIIB; format: functional
[6] = Resistant factor, ratio of EC50 for antiviral activity against HIV-1 IIIB harboring reverse transcriptase Y181C mutant to EC50 for antiviral activity against wild type HIV-1 IIIB; format: functional
[7] = test system: Human immunodeficiency virus 1; assay: Antiviral activity against wild type HIV-1 IIIB harboring reverse transcriptase Y188L mutant infected in human MT4 cells assessed as protection against virus-induced cytopathic effect incubated for 5 days by MTT assay; format: functional, organism-based; settings: Human immunodeficiency virus 1, IIIB, MT4, 120 h
[8] = test system: Human immunodeficiency virus 1; assay: Antiviral activity against wild type HIV-1 IIIB harboring reverse transcriptase E138K mutant infected in human MT4 cells assessed as protection against virus-induced cytopathic effect incubated for 5 days by MTT assay; format: functional, organism-based; settings: Human immunodeficiency virus 1, IIIB, MT4, 120 h
[9] = Resistant factor, ratio of EC50 for antiviral activity against HIV-1 IIIB harboring reverse transcriptase E138K mutant to EC50 for antiviral activity against wild type HIV-1 IIIB; format: functional
[10] = target: Human immunodeficiency virus type 1 reverse transcriptase (Human immunodeficiency virus 1, UniProt Q72547); assay: Inhibition of recombinant wild type HIV-1 reverse transcriptase using DNA/RNA as substrate incubated for 40 mins by Pico-green dye based spectrofluorometric analysis
[11] = target: T1, Cytochrome P450 1A2 (Homo sapiens, UniProt P05177); assay: Inhibition of CYP1A2 in human liver microsomes using phenacetin as substrate incubated for 15 to 45 mins in presence of NADPH; format: ADME, Microsome
T1 sequence (P05177 whole entry): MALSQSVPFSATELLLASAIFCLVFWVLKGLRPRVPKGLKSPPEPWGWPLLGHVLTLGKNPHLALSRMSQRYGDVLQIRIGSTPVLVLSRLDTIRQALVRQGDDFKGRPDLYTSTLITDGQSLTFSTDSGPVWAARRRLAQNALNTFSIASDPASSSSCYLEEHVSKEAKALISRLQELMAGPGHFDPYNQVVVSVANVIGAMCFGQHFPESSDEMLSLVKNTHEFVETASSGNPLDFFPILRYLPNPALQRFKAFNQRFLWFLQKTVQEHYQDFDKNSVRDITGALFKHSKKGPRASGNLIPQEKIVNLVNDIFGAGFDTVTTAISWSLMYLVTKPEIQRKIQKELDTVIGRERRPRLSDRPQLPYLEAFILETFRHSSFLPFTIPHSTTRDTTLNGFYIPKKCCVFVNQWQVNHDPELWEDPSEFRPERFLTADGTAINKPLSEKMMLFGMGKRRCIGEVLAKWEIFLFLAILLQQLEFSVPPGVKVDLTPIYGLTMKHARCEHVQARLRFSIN

[12] = target: Cytochrome P450 2C9 (Homo sapiens, UniProt P11712); assay: Inhibition of CYP2C9 in human liver microsomes using tolbutamide as substrate incubated for 15 to 45 mins in presence of NADPH
[13] = target: Cytochrome P450 2D6 (Homo sapiens, UniProt P10635); assay: Inhibition of CYP2D6 in human liver microsomes using dextromethorphan as substrate incubated for 15 to 45 mins in presence of NADPH; format: ADME, Microsome
[14] = Half life in Sprague-Dawley rat at 10 mg/kg, po measured upto 24 hrs by LC-MS/MS analysis; format: ADME, organism-based; settings: in vivo
[15] = Tmax in Sprague-Dawley rat at 10 mg/kg, po measured upto 24 hrs by LC-MS/MS analysis; format: ADME, organism-based; settings: in vivo
[16] = AUC (0 to t) in Sprague-Dawley rat at 10 mg/kg, po measured upto 24 hrs by LC-MS/MS analysis; format: ADME, organism-based; design: dose 10 mg/kg, time < 24 hrs, route po; settings: in vivo
[17] = MRT (0 to t) in Sprague-Dawley rat at 10 mg/kg, po measured upto 24 hrs by LC-MS/MS analysis; format: ADME, organism-based; settings: in vivo
[18] = Oral bioavailability in Sprague-Dawley rat at 10 mg/kg measured upto 24 hrs by LC-MS/MS analysis; format: ADME, organism-based; settings: in vivo
[19] = AUC (0 to t) in Sprague-Dawley rat at 1 mg/kg, iv measured upto 24 hrs by LC-MS/MS analysis; format: ADME, organism-based; design: time < 24 hrs, dose 1 mg/kg, route iv; settings: in vivo
[20] = MRT (0 to t) in Sprague-Dawley rat at 1 mg/kg, iv measured upto 24 hrs by LC-MS/MS analysis; format: ADME, organism-based; settings: in vivo
[21] = Acute toxicity in 12 hr fasted male CD-1 (ICR) mouse assessed as death at 2 g/Kg, IG measured after 14 days; settings: in vivo, po, 2000 mg/kg, 336 h, time 14 day
[22] = Acute toxicity in 12 hr fasted female CD-1 (ICR) mouse assessed as death at 2 g/Kg, IG measured after 14 days; settings: in vivo, po, 2000 mg/kg, 336 h, time 14 day
[23] = Acute toxicity in 12 hr fasted male CD-1(ICR) mouse assessed as behavioral abnormalities at 2 g/Kg, IG measured after 14 days; settings: in vivo, po, 2000 mg/kg, 336 h, time 14 day
[24] = Acute toxicity in 12 hr fasted female CD-1(ICR) mouse assessed as pathological damage in liver at 2 g/Kg, IG measured after 14 days by H and E staining based analysis; format: tissue-based; settings: in vivo, po, 2000 mg/kg, 336 h, time 14 day
[25] = Acute toxicity in 12 hr fasted male CD-1(ICR) mouse assessed as pathological damage in heart at 2 g/Kg, IG measured after 14 days by H and E staining based analysis; format: tissue-based; settings: in vivo, po, 2000 mg/kg, 336 h, time 14 day
[26] = Acute toxicity in 12 hr fasted female CD-1(ICR) mouse assessed as pathological damage in heart at 2 g/Kg, IG measured after 14 days by H and E staining based analysis; format: tissue-based; settings: in vivo, po, 2000 mg/kg, 336 h, time 14 day
[27] = Acute toxicity in 12 hr fasted male CD-1(ICR) mouse assessed as pathological damage in lung at 2 g/Kg, IG measured after 14 days by H and E staining based analysis; format: tissue-based; settings: in vivo, po, 2000 mg/kg, 336 h, time 14 day
[28] = Acute toxicity in 12 hr fasted female CD-1(ICR) mouse assessed as pathological damage in lung at 2 g/Kg, IG measured after 14 days by H and E staining based analysis; format: tissue-based; settings: in vivo, po, 2000 mg/kg, 336 h, time 14 day
[29] = Acute toxicity in 12 hr fasted male CD-1(ICR) mouse assessed as pathological damage in kidney at 2 g/Kg, IG measured after 14 days by H and E staining based analysis; format: tissue-based; settings: in vivo, po, 2000 mg/kg, 336 h, time 14 day
[30] = Acute toxicity in 12 hr fasted female CD-1(ICR) mouse assessed as pathological damage in kidney at 2 g/Kg, IG measured after 14 days by H and E staining based analysis; format: tissue-based; settings: in vivo, po, 2000 mg/kg, 336 h, time 14 day
[31] = Acute toxicity in 12 hr fasted female CD-1(ICR) mouse assessed as pathological damage in brain at 2 g/Kg, IG measured after 14 days by H and E staining based analysis; format: tissue-based; settings: in vivo, po, 2000 mg/kg, 336 h, time 14 day

Chain of Cytochrome P450 2D6 (P10635 whole entry): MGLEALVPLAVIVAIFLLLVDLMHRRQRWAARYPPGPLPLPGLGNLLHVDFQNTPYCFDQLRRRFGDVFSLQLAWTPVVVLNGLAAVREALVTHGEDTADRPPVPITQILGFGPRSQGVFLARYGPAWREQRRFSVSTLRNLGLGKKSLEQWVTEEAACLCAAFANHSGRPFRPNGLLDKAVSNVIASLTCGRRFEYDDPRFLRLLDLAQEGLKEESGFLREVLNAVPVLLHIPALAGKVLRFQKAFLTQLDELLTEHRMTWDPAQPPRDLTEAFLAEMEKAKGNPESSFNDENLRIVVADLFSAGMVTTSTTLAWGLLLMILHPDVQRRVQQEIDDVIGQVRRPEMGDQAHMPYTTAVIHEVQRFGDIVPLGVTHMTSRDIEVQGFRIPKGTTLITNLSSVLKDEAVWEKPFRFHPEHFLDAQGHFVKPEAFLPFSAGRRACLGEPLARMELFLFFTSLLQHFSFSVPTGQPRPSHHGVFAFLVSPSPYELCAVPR
Chain of Cytochrome P450 2C9 (P11712 whole entry): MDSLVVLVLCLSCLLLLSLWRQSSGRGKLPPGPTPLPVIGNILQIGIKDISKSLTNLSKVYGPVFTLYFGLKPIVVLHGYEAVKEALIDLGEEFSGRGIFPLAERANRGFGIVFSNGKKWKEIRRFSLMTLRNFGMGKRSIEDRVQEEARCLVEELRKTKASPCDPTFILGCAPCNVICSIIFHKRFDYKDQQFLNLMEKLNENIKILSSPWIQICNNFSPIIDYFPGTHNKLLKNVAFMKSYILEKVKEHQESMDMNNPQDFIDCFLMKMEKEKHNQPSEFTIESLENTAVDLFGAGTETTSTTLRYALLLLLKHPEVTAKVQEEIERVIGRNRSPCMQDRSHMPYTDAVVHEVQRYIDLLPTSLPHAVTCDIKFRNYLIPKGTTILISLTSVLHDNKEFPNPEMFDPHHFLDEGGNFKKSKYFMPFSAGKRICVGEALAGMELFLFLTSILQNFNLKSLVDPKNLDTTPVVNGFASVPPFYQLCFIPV

SMILES: CONC(=O)c1cnc(Nc2ccc(C#N)cc2)nc1Oc1c(C)cc(-c2ccc(C#N)cc2)cc1C
- selectivity ratio [1]: > 17400
- CC50 at 120 h [2]: > 40800 nM
- EC50 [3]: 13 nM
- EC50 [4]: 8 nM
- Ratio EC50 [5]: 3.5
- Ratio EC50 [6]: 13
- EC50 [7]: 52 nM
- EC50 [8]: 6 nM
- Ratio EC50 [9]: 2.6
- IC50 [10]: 47 nM
- IC50 [11]: > 50000 nM
- IC50 [12]: 18500 nM
- IC50 [13]: > 50000 nM
- half-life [14]: 5.18 h
- Tmax [15]: 2 h
- AUC(0-t) at 24 h [16]: 3570 ng·h/mL
- MRT last at 24 h [17]: 4.54 h
- bioavailability [18]: 31.2%
- AUC(0-t) at 24 h [19]: 1160 ng·h/mL
- MRT last at 24 h [20]: 3.56 h
- Activity [21]: Non-Toxic
- Activity [22]: Non-Toxic
- Activity [23]: Non-Toxic
- Activity [24]: Non-Toxic
- Activity [25]: Non-Toxic
- Activity [26]: Non-Toxic
- Activity [27]: Non-Toxic
- Activity [28]: Non-Toxic
- Activity [29]: Non-Toxic
- Activity [30]: Non-Toxic
- Activity [31]: Non-Toxic
